Measurements taken from patent US20240277698A1, “METHODS OF USING ALDOSTERONE SYNTHASE INHIBITORS” (CINCOR PHARMA, INC., priority 2021, published 2024).
Like-named read-outs stand apart in the source and are kept apart here.

Legend:
[1] = Metformin drug-drug interaction study: urine pharmacokinetics of metformin; type: in vivo, human
[2] = Metformin drug-drug interaction study: safety (TEAEs); settings: for Any TEAEs leading to death, number of events / Any TEAEs leading to death, subjects: Treatment A = 1000 mg metformin alone (N = 26), Treatment B = 1000 mg metformin + 10 mg Compound 1 (N = 27)
Description: Safety was assessed throughout the study based on adverse events (AEs), physical examinations, weight measurements, electrocardiograms (ECGs), vital signs assessments (seated and orthostatic), and clinical laboratory evaluations.
The following safety assessments were performed: • AEs and SAEs; • Clinical laboratory test assessments; • Vital signs including heart rate, blood pressure (BP) (including orthostatic BP when indicated), respiration rate, and temperature; • 12-lead ECGs; • Physical examinations; and • Height, weight, and BMI.
Safety analyses were performed throughout the study based on the Safety Population. Safety was evaluated through assessments of AEs, physical examinations, ECGs, weight measurements, vital signs assessments (seated and orthostatic), and clinical laboratory evaluations.
A TEAE was defined as an AE that emerged, having been absent prior to the study, or an AE that worsened in severity after the first dose of any drug in this study. TEAEs were summarized by MedDRA SOC and PT for each treatment and overall. The number and percentage of subjects experiencing TEAEs and the number of TEAEs were tabulated. Subjects reporting more than 1 AE for a given MedDRA PT were counted only once for that term using the most severe incident. Subjects reporting more than 1 type of event within a SOC were counted only once for that SOC. The Safety Population was used for all the safety analyses.

aldosterone synthase = aldosterone synthase (Homo sapiens, UniProt P19099); settings: cited from earlier work
[3] = Treatment B: single 1000 mg metformin + 10 mg Compound 1
clinical = settings: human, in vivo, 1000 mg; for AUC(0-inf): Metformin plasma AUC0-inf; for AUC(0-t): Metformin plasma AUC0-t
[4] = Treatment B: 10 mg Compound 1 with single 1000 mg metformin
[5] = Treatment A: single 1000 mg metformin alone
[6] = Treatment B: single 1000 mg metformin + 10 mg Compound 1

Sequence of aldosterone synthase (P19099 25-503, species assumed): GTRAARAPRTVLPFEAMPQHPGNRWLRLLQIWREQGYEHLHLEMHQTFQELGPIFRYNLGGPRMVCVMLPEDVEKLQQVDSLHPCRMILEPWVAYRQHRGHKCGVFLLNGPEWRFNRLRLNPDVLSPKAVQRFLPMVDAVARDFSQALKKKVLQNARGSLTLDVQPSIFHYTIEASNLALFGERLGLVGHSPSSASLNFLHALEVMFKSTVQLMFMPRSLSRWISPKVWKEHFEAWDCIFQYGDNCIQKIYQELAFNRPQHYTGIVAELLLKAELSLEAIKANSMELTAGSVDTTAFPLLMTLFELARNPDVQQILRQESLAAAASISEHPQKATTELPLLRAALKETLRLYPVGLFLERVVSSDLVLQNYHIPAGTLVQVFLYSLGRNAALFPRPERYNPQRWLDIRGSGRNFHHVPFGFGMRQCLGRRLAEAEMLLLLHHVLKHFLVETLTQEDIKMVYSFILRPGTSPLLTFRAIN

Compound: CCC(=O)NC1CCCc2c(-c3ccc4c(c3)CCC(=O)N4C)cncc21 (stereo not drawn) [Compound 1, N-(4-(1-methyl-2-oxo-1,2,3,4-tetrahydroquinolin-6-yl)-5,6,7,8-tetrahydroisoquinolin-8-yl)propionamide]
- effect on metformin renal clearance ([1]; 10 mg Compound 1 2 hours prior to metformin dosing): did not result in a reduction
- Any TEAEs leading to death, number of events [2]: 0 e
- Any TEAEs leading to death, subjects [2]: 0 (0.0) n (%)
- Compound 1 plasma AUC%extrap, Mean (SD) [4]: 9.9 (5.2) %
- Compound 1 plasma λz, Mean (SD) [4]: 0.033 (0.008) 1/h
- Tmax (human, plasma): 1.3 h
- AUC(0-t) (human, plasma, Compound 1 plasma AUC0-24, Mean (SD), Treatment B: 10 mg Compound 1 with single 1000 mg metformin): 1.66 µg·h/mL
- AUC(0-t) (human, plasma, Compound 1 plasma AUC0-72, Mean (SD), Treatment B: 10 mg Compound 1 with single 1000 mg metformin): 2.87 µg·h/mL

Compound: N#Cc1ccc([C@H]2CCc3cncn32)c(F)c1 [LCI1699]
- specificity for aldosterone synthase (aldosterone synthase; clinical trials by Novartis, discontinued): lack of specificity for aldosterone synthase
- ACTH associated with aldosterone reductions (aldosterone synthase; previously observed): corresponding increase in ACTH
- increase in predose 11-deoxycorticosterone levels (aldosterone synthase; previously observed): up to 10 fold

Compound: CN(C)C(=N)N=C(N)N [metformin]
- metformin dose excreted in the urine ([1]; 1000 mg metformin, presence and absence of Compound 1): approximately 30%
- Metformin urine Fe0-3, Mean (CV %) [1, 5]: 11.76 (33.0) %
- Metformin urine Fe0-6, Mean (CV %) [1, 5]: 21.50 (27.2) %
- Metformin urine Fe0-9, Mean (CV %) [1, 5]: 25.40 (28.1) %
- Metformin urine Fe0-12, Mean (CV %) [1, 5]: 27.42 (26.2) %
- Metformin urine Fe0-18, Mean (CV %) [1, 5]: 29.11 (25.6) %
- Metformin urine Fe0-24, Mean (CV %) [1, 5]: 29.82 (25.1) %
- Metformin urine Fe0-30, Mean (CV %) [1, 5]: 30.21 (24.9) %
- Metformin urine Fe0-36, Mean (CV %) [1, 5]: 30.50 (24.7) %
- Metformin urine Fe0-48, Mean (CV %) [1, 5]: 30.90 (24.5) %
- Metformin urine Fe0-72, Mean (CV %) [1, 5]: 31.23 (24.2) %
- Metformin urine Fe0-3, Mean (CV %) [1, 6]: 10.47 (36.6) %
- Metformin urine Fe0-6, Mean (CV %) [1, 6]: 19.06 (32.4) %
- Metformin urine Fe0-9, Mean (CV %) [1, 6]: 23.11 (33.8) %
- Metformin urine Fe0-12, Mean (CV %) [1, 6]: 25.07 (32.5) %
- Metformin urine Fe0-18, Mean (CV %) [1, 6]: 26.52 (31.3) %
- Metformin urine Fe0-24, Mean (CV %) [1, 6]: 27.21 (30.6) %
- Metformin urine Fe0-30, Mean (CV %) [1, 6]: 27.62 (30.3) %
- Metformin urine Fe0-36, Mean (CV %) [1, 6]: 27.87 (30.0) %
- Metformin urine Fe0-48, Mean (CV %) [1, 6]: 28.25 (29.4) %
- Metformin urine Fe0-72, Mean (CV %) [1, 6]: 28.72 (28.9) %
- Any TEAEs leading to death, number of events [2]: 0 e
- Any TEAEs leading to death, subjects [2]: 0 (0.0) n (%)
- subjects experiencing diarrhoea ([2]; human, in vivo): 3 (11.5%)
- subjects experiencing nausea ([2]; human, in vivo): 1 (3.7%)
- subjects experiencing upper abdominal pain ([2]; human, in vivo): One (3.7%)
- Metformin plasma AUC0-t, Geom LS Mean [3]: 10.68345 µg·h/mL
- AUC(0-inf) (clinical; Geom LS Mean): 11.1 µg·h/mL
- AUC(0-inf) (clinical; Mean (SD)): 11.2 µg·h/mL
- AUC(0-t) (clinical; Geom LS Mean): 11 µg·h/mL
- AUC(0-t) (clinical; Mean (SD)): 11.2 µg·h/mL
